Test results taken from ChEMBL document CHEMBL3881527, “Multi-functional small molecules as anti-proliferative agents” (2008).
pIC50: −log10 of the molar value. Blank lines part the entries; values can stand above or below the compound they belong to. Active and inactive are the calls of the source. The calls are words filed in the database; no cut-off is given here.

How the values were obtained:
[1] = target: Vascular endothelial growth factor receptor 2 (Homo sapiens, UniProt P35968); assay: Inhibition of N-terminal GST-His6-thrombin cleavage site-fused human VEGFR2 (Asp805 to Val1356 residues) expressed in baculovirus expression system using biotinylated gastrin precursor at Tyr87 as substrate preincubated for 5 mins followed by substrate addition measured after 30 mins by DELFIA method
[2] = target: Mast/stem cell growth factor receptor Kit (Homo sapiens, UniProt P10721); assay: Inhibition of human N-terminal GST-tagged human c-Kit (Thr544 to Val976 residues) expressed in baculovirus expression system assessed as decrease in biotinylated KDR phosphorylation at Tyr996 preincubated for 5 mins followed by substrate addition measured after 30 mins by DELFIA method
[3] = target: Platelet-derived growth factor receptor beta (Homo sapiens, UniProt P09619); assay: Inhibition of N-terminal GST-His6-thrombin cleavage site-fused human PDGFRbeta (Arg561 to Leu1106 residues) assessed as decrease in biotinylated FLT3 phosphorylation at Tyr589 preincubated for 5 mins followed by substrate addition measured after 30 mins by DELFIA method
[4] = Cytotoxicity against human CFPAC cells assessed as growth inhibition by measuring ATP levels after 72 hrs by ATPlite assay; type: functional, cell-based
[5] = target: Receptor tyrosine-protein kinase erbB-2 (Homo sapiens, UniProt P04626); assay: Inhibition of N-terminal GST-tagged human HER2 (Lys676 to Val1255 residues) expressed in baculovirus expression system using biotinylated FLT3 at Tyr589 as substrate preincubated for 5 mins followed by substrate addition measured after 30 mins by DELFIA method
[6] = target: Epidermal growth factor receptor (Homo sapiens, UniProt P00533); assay: Inhibition of N-terminal GST-fused human EGFR (His672 to Ala1210 residues) expressed in baculovirus expression system using biotinylated PTP1B at Tyr66 as substrate preincubated for 5 mins followed by substrate addition measured after 30 mins by DELFIA
[7] = Chemical stability in diluted solution; type: physicochemical
[8] = Solubility of the compound at pH 4 to 5; type: physicochemical; conditions: buffer
[9] = target: Proto-oncogene tyrosine-protein kinase Src (Homo sapiens, UniProt P12931); assay: (§1) Inhibition of human N-terminal GST-tagged full length human Src (Met1 to Leu536 residues) expressed in baculovirus expression system assessed as decrease in biotin signal transduction protein phosphorylation at Tyr160 preincubated for 5 mins followed by substrate addition measured after 30 mins by DELFIA method
[10] = target: Tyrosine-protein kinase ABL1 (Homo sapiens, UniProt P00519); assay: as §1, with “GST-tagged” for “GST-tagged full length”, “Abl1 (Pro118” for “Src (Met1”, “Ser553” for “Leu536”
[11] = target: Cyclin-dependent kinase 2/cyclin E1 (Homo sapiens, UniProt P24941); assay: Inhibition of C-terminal His6-tagged full length CDK2/N-terminal GST-tagged recombinant full length human cyclin E1 expressed in baculovirus infected SF21 insect cells using histone H1 as substrate after 2 hrs in presence of [gamma-33P]-ATP
CDK6/cyclin D3 = CDK6/cyclin D3 (Homo sapiens, UniProt Q00534); assay: Inhibition of N-terminal His6-tagged full length human CDK6/N-terminal GST-tagged recombinant full length human cyclin D3 expressed in baculovirus infected SF21 insect cells using histone H1 as substrate after 2 hrs in presence of [gamma-33P]-ATP
SK-BR-3 = assay: Induction of apoptosis in human SKBR3 cells assessed as increase in caspase3/7 activity after 24 hrs; type: functional, cell-based; conditions: SK-BR-3, 24 h
HCT-116 [12] = assay: Induction of apoptosis in human HCT116 cells assessed as increase in caspase3/7 activity after 24 hrs; type: functional, cell-based; conditions: HCT-116, 24 h
[13] = Antitumor activity against human A549 cells xenografted in nu/nu athymic mouse assessed as increase in tumor size at 120 mg/kg administered in 30% captisol after 24 hrs (reference value: 240%); type: functional
[14] = Toxicity in CD1 mouse assessed as change in body weight up to 100 mg/kg, ip administered as repeated dosing in 30% captisol measured over 7 days; type: organism-based; conditions: in vivo, 168 h
[15] = Toxicity in Sprague-Dawley rat assessed as change in body weight up to 200 mg/kg, ip administered as single dose in 30% captisol measured over 8 days; type: organism-based; conditions: in vivo, 192 h
[16] = Toxicity in CD1 mouse assessed as change in body weight up to 200 mg/kg, iv administered as single dose in 30% captisol measured over 9 days; type: organism-based; conditions: in vivo, 216 h
[17] = target: Serine/threonine-protein kinase B-raf (Homo sapiens, UniProt P15056); assay: Inhibition of N-terminal GST-tagged recombinant human B-Raf ([…] residues) expressed in baculovirus infected Sf21 insect cells using MEK1 as substrate preincubated for 5 mins followed by substrate addition measured after 30 mins by DELFIA
HPAC = assay: Antitumor activity against human HPAC cells xenografted in nu/nu athymic mouse assessed as tumor growth inhibition at 120 mg/kg, iv or ip administered in 30% captisol; type: functional, organism-based
NCI-H358 = assay: Antitumor activity against human NCI-H358 cells xenografted in nu/nu athymic mouse assessed as tumor growth inhibition at 15 to 60 mg/kg, iv as 2 mins infusion administered via 7 days on 7 days off and 5 days on regimen measured twice weekly during compound dosing; type: functional, organism-based
NCI-H292 = assay: Antitumor activity against human NCI-H292 cells xenografted in nu/nu athymic mouse assessed as tumor growth inhibition at 15 to 60 mg/kg, iv as 2 mins infusion administered via 7 days on 7 days off and 5 days on regimen measured twice weekly during compound dosing; type: functional, organism-based
HCT-116 [18] = assay: Antitumor activity against human HCT116 cells xenografted in nu/nu athymic mouse assessed as tumor growth inhibition at 15 to 60 mg/kg, iv as 2 mins infusion administered via 5 days on 2 days off and 5 days on regimen measured twice weekly during compound dosing; type: functional, organism-based
PC-3 = assay: Antitumor activity against human PC3 cells xenografted in nu/nu athymic mouse assessed as tumor growth inhibition at 10 to 40 mg/kg, iv as 2 mins infusion administered via 7 days on 7 days off and 5 days on regimen measured twice weekly during compound dosing; type: functional, organism-based
BXPC-3 = assay: Antitumor activity against human BxPC3 cells xenografted in nu/nu athymic mouse assessed as tumor growth inhibition at 10 to 40 mg/kg, iv as 2 mins infusion administered via 7 days on 7 days off and 2 days on regimen measured twice weekly during compound dosing; type: functional, organism-based
A-431 = assay: Antitumor activity against human A431 cells xenografted in nu/nu athymic mouse assessed as tumor growth inhibition at 6 to 48 mg/kg, ip qd administered for 21 days measured twice weekly during compound dosing; type: functional, organism-based

Vascular endothelial growth factor receptor 2, sequence (P35968 whole entry, the tested form may be a part): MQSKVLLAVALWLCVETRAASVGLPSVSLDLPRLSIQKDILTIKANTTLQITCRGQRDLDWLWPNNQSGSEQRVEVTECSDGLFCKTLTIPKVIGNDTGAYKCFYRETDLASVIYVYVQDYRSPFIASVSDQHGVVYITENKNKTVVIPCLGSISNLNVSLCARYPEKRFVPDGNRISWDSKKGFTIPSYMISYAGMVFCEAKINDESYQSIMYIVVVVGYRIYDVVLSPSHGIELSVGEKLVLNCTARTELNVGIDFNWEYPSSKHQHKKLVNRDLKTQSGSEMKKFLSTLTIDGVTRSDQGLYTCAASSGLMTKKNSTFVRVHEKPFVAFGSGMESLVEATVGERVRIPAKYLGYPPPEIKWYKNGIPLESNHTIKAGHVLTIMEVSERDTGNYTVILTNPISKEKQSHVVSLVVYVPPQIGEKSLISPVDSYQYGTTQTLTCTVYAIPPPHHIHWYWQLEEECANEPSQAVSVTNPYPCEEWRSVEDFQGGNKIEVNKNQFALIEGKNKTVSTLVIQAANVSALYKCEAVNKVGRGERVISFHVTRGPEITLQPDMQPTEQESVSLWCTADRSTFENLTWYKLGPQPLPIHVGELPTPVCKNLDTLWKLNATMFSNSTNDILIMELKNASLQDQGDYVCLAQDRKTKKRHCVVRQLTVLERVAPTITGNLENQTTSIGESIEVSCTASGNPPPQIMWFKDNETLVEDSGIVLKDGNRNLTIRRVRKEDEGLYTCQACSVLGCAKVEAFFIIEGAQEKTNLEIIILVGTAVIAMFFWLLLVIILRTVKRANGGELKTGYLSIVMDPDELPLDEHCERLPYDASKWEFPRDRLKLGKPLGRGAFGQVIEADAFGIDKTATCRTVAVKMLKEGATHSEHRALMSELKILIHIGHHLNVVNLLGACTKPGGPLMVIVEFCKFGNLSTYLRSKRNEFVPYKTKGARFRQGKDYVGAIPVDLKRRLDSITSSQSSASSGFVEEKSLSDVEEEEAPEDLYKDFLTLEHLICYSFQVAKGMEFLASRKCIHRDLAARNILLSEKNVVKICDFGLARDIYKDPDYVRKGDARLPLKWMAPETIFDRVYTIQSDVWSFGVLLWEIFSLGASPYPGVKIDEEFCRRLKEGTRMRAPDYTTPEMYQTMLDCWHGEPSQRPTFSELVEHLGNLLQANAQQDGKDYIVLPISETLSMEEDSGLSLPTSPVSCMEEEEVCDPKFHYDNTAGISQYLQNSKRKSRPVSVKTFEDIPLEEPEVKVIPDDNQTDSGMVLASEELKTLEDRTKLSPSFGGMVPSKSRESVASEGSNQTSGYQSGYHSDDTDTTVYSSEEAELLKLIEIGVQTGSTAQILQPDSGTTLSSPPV
Proto-oncogene tyrosine-protein kinase Src, sequence (P12931 2-536 limits assumed): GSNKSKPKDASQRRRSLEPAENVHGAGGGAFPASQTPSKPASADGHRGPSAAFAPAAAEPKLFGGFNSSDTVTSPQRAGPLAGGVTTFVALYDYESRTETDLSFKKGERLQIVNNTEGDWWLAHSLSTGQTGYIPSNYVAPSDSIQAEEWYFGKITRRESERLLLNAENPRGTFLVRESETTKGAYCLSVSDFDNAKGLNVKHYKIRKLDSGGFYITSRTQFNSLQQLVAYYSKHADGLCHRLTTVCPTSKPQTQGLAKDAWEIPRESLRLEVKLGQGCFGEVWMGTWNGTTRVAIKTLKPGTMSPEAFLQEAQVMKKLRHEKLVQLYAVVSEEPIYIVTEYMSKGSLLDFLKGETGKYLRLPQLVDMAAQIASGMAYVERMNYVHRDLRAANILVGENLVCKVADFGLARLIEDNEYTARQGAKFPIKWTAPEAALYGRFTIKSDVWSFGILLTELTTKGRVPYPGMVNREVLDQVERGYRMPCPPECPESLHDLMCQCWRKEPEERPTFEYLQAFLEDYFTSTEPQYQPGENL
Tyrosine-protein kinase ABL1, sequence (P00519 whole entry): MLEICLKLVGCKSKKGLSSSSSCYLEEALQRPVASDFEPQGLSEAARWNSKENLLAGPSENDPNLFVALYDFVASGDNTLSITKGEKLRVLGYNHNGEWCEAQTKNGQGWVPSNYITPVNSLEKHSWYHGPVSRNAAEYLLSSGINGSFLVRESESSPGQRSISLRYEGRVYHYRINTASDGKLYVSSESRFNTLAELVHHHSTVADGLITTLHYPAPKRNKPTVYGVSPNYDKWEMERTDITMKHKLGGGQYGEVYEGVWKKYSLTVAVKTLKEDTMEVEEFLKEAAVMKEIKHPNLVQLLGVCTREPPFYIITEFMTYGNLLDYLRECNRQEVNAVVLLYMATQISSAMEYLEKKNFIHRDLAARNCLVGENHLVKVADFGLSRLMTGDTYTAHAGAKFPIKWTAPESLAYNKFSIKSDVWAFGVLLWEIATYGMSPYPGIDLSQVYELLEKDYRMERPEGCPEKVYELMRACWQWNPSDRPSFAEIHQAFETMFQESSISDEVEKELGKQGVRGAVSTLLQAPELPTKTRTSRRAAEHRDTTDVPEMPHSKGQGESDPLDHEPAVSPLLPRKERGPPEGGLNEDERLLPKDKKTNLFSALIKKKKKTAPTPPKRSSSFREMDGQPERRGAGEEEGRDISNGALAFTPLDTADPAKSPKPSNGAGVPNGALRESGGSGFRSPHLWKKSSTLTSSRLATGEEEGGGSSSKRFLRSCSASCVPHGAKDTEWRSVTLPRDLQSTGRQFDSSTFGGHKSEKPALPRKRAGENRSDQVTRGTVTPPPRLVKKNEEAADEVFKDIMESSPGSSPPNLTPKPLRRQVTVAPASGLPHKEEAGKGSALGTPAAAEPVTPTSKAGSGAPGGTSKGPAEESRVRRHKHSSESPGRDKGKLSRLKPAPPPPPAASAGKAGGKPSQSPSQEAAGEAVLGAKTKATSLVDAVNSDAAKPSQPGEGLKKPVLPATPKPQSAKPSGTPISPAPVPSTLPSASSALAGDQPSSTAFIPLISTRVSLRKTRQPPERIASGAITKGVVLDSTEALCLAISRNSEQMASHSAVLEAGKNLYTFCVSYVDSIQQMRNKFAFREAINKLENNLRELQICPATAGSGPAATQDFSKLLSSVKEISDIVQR
Mast/stem cell growth factor receptor Kit, sequence (P10721 whole entry, the tested form may be a part): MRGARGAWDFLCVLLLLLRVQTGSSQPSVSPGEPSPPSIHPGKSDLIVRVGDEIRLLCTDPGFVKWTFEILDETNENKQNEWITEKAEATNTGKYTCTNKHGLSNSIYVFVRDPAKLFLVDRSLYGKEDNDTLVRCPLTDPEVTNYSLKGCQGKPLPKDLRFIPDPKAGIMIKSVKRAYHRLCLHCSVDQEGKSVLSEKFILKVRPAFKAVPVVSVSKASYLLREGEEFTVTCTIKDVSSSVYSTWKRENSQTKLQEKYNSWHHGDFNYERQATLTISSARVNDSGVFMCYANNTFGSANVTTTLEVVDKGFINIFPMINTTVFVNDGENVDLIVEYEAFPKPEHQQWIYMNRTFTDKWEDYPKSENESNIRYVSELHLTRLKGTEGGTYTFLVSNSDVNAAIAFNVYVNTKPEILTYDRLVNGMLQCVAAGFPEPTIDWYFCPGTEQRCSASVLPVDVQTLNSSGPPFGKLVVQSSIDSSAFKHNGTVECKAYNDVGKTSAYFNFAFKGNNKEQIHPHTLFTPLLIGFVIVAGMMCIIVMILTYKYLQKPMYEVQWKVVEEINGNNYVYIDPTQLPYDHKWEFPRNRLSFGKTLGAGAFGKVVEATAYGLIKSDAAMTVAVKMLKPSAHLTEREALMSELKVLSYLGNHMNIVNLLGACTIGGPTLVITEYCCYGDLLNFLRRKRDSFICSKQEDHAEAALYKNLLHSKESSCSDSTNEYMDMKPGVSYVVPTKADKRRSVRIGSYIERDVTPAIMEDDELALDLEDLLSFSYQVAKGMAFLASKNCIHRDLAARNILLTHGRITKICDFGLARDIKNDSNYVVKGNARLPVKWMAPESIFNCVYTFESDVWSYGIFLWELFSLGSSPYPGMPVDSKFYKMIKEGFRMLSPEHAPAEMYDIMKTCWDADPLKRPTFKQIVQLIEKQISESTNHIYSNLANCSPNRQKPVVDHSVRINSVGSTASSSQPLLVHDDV
Platelet-derived growth factor receptor beta, sequence (P09619 whole entry, the tested form may be a part): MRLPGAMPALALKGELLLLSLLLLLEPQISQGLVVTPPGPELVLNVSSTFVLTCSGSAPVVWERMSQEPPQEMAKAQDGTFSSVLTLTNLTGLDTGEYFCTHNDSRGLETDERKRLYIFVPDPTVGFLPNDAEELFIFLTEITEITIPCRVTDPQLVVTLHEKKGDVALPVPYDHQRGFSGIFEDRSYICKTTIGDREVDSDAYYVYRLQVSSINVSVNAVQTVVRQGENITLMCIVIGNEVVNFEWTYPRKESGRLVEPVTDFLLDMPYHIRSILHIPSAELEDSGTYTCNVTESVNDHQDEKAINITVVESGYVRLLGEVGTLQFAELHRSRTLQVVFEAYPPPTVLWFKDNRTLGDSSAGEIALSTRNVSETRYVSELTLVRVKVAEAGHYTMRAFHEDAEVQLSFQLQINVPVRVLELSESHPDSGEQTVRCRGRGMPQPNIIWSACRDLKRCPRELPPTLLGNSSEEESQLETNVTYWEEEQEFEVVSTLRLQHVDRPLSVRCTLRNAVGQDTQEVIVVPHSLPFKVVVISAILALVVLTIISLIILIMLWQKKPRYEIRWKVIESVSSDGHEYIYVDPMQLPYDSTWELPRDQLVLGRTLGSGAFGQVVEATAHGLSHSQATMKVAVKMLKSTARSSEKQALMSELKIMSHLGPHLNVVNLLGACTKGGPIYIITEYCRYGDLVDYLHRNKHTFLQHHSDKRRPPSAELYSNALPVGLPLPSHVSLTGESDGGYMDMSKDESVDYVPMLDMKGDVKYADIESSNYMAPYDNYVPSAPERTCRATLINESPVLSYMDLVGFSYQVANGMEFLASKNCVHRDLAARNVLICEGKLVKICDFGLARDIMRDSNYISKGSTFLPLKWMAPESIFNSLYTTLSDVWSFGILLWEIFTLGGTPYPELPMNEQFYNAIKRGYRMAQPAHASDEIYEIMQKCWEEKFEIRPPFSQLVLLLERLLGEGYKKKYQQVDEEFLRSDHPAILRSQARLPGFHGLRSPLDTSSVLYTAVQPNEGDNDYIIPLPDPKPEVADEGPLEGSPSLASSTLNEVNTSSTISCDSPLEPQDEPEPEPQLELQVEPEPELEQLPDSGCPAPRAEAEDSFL

Structure (SMILES): O=C(CCCCC(=O)NCc1cc(Oc2ccc(NC(=O)Nc3ccc(Cl)c(C(F)(F)F)c3)cc2)ccn1)NO
- pIC50 [1]: ≥ 7.00
- pIC50 [2]: ≥ 7.00
- pIC50 [3]: 6.00 to 7.00

Structure (SMILES): Cc1nc(Nc2ncc(C(=O)Nc3c(C)cccc3Cl)s2)cc(N2CCN(CCCCCCC(=O)NO)CC2)n1
- pIC50 [2]: ≥ 7.00
- pIC50 [9]: ≥ 7.00
- pIC50 [3]: ≥ 7.00
- pIC50 [10]: ≥ 7.00

Structure (SMILES): CC(C)(C)c1cnc(CSc2cnc(NC(=O)Cc3ccc(OCCCCC(=O)NO)cc3)s2)o1
- pIC50 [11]: ≥ 7.00

Structure (SMILES): CC(C)(C)c1cnc(CSc2cnc(NC(=O)CCCC(=O)NO)s2)o1
- pIC50 [11]: ≥ 7.00
- pIC50 (CDK6/cyclin D3): 6.00 to 7.00

Structure (SMILES): O=C(CCCCCCC(=O)NCc1cc(Oc2ccc(NC(=O)Nc3ccc(Cl)c(C(F)(F)F)c3)cc2)ccn1)NO
- pIC50 [1]: ≥ 7.00
- pIC50 [2]: ≥ 7.00
- pIC50 [3]: 6.00 to 7.00

Structure (SMILES): Cc1nc(Nc2ncc(C(=O)Nc3c(C)cccc3Cl)s2)cc(N2CCN(CCCCC(=O)NO)CC2)n1
- pIC50 [9]: ≥ 7.00
- pIC50 [3]: ≥ 7.00
- pIC50 [10]: ≥ 7.00

Structure (SMILES): O=C(CCCCCNC(=O)c1cc(Oc2ccc(NC(=O)Nc3ccc(Cl)c(C(F)(F)F)c3)cc2)ccn1)NO
- pIC50 [1]: ≥ 7.00
- pIC50 [2]: ≥ 7.00
- pIC50 [17]: 5.00 to 6.00
- pIC50 [3]: 6.00 to 7.00

Structure (SMILES): COc1cc2ncnc(N[C@H](C)c3ccccc3)c2cc1OCCCCCC(=O)NO
- pIC50 [4]: 5.00 to 6.00

Structure (SMILES): Cc1[nH]c(/C=C2\C(=O)Nc3ccc(F)cc32)c(C)c1C(=O)NCCCCCCC(=O)NO
- pIC50 [1]: ≥ 7.00
- pIC50 [3]: 6.00 to 7.00

Structure (SMILES): Cc1nc(Nc2ncc(C(=O)Nc3c(C)cccc3Cl)s2)cc(N2CCN(CCCCCC(=O)NO)CC2)n1
- pIC50 [2]: ≥ 7.00
- pIC50 [9]: ≥ 7.00
- pIC50 [3]: ≥ 7.00
- pIC50 [10]: ≥ 7.00

Structure (SMILES): C#Cc1cccc(Nc2ncnc3cc(OC)c(OCCCCCCC(=O)NO)cc23)c1
- TGI (HPAC): Active
- TGI (NCI-H358): Active
- TGI (NCI-H292): Active
- TGI (HCT-116 [18]): Active
- TGI (PC-3): Active
- TGI (BXPC-3): Active
- TGI (A-431): Active

Structure (SMILES): Cc1nc(N)cc(N(CC(=O)NO)c2ncc(C(=O)Nc3c(C)cccc3Cl)s2)n1
- pIC50 [9]: 6.00 to 7.00
- pIC50 [10]: 6.00 to 7.00

Structure (SMILES): Cc1nc(NCCNCC(=O)NO)cc(Nc2ncc(C(=O)Nc3c(C)cccc3Cl)s2)n1
- pIC50 [9]: ≥ 7.00
- pIC50 [10]: ≥ 7.00

Structure (SMILES): COc1cc2ncnc(NCc3ccccc3)c2cc1OCCCCCCC(=O)NO
- pIC50 [4]: 5.00 to 6.00

The next lines start with results.

- pIC50 [5]: 6.00 to 7.00
Structure (SMILES): O=C(CCCCCCOc1ccc2ncnc(Nc3ccc(F)c(Cl)c3)c2c1)NO
- pIC50 [4]: 6.00 to 7.00

- pIC50 [6]: ≥ 7.00
Structure (SMILES): COc1cc2ncnc(Nc3ccc(F)c(Cl)c3)c2cc1OCCOc1ccc(/C=C/C(=O)NO)cc1
- pIC50 [4]: ≤ 5.00

- Stability [7]: > 12 h
- solubility [8]: 25 mg/mL
Structure (SMILES): C#Cc1cccc(Nc2ncnc3cc(OC)c(OCCCCCCC(=O)NO)cc23)c1.O=C(O)CC(O)(CC(=O)O)C(=O)O

- pIC50 (SK-BR-3): < 4.70
- pIC50 (HCT-116 [12]): < 4.70
Structure (SMILES): C#Cc1cccc(Nc2ncnc3cc(OCCOC)c(OCCOC)cc23)c1 [ERLOTINIB]

- pIC50 (SK-BR-3): 6.04
- pIC50 (HCT-116 [12]): 6.77
Structure (SMILES): C#Cc1cccc(Nc2ncnc3cc(OC)c(OCCCCCCC(=O)NO)cc23)c1 [CUDC-101]
- Activity [13]: 150%
- Activity [14]: Non-Toxic
- Activity [15]: Non-Toxic
- pIC50 [4]: 6.00 to 7.00
- Activity [16]: Non-Toxic

- pIC50 [5]: ≥ 7.00
Structure (SMILES): COCCOc1cc2ncnc(Nc3ccc(F)c(Cl)c3)c2cc1NC(=O)CCCCCCC(=O)NO
- pIC50 [4]: 5.00 to 6.00
